Data taken from PMC9820316, “Novel Arylpiperazine Derivatives of Salicylamide with α1-Adrenolytic Properties Showed Antiarrhythmic and Hypotensive Properties in Rats” (International Journal of Molecular Sciences, 2022).
Marks after values point to notes of the source that are not given here.

Tests used:
α1-adrenergic receptors = assay: α1-adrenoceptor radioligand binding assay ([3H]-prazosin, rat cortex); details: rat cortex tissue, mean ± SEM
Outline: (§1)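 Rat cerebral cortex membranes in 50 mM Tris-HCl pH 7.6, with 7–8 compound concentrations in duplicate. Nonspecific binding defined by 10 μM phentolamine for [3H]-prazosin (α1) or 10 μM clonidine for [3H]-clonidine (α2). Filtration and scintillation counting; Ki calculated.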

α2-adrenergic receptors = assay: α2-adrenoceptor radioligand binding assay ([3H]-clonidine, rat cortex); details: rat cortex tissue, mean ± SEM, n.a. = did not bind at 10^−5 M
Outline: as §1

[1] = tested on: pressor response to methoxamine in rats; assay: Influence on blood vasopressor response to methoxamine in rats; assay type: in vivo, rat; details: methoxamine 150 μg/kg before and 5 min after compound
Outline: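 Anaesthetised (thiopental 75 mg/kg ip) normotensive Wistar rats, carotid artery cannulated. Pressor response to methoxamine (150 µg/kg, iv) recorded before and 5 min after test compound, given at its lowest hypotensive dose, after 15-min stabilisation.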

normotensive rats = assay: Influence on blood pressure in the normotensive rats; assay type: in vivo, rat; details: for DBP—diastolic blood pressure / SBP—systolic blood pressure: mean ± SD
Outline: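 Anaesthetised (thiopental 75 mg/kg ip) normotensive Wistar rats with right carotid artery cannulated for direct pressure recording. Compounds given iv after 15 min stabilisation. Systolic and diastolic blood pressure were monitored.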

[2] = tested on: adrenaline-induced arrhythmia model in rats; assay: Prophylactic antiarrhythmic activity in adrenaline-induced arrhythmia; assay type: in vivo, rat; details: for Blocks / Bradycardia / Extrasystoles / Mortality: number of animals with event; for ED50: prophylactic, iv 15 min before adrenaline 20 μg/kg, confidence limits in brackets (Litchfield and Wilcoxon)
[3] = tested on: aconitine-induced arrhythmia model in rats; assay: Prophylactic antiarrhythmic activity in aconitine-induced arrhythmia; assay type: in vivo, rat; details: 5 mg/kg iv 15 min before aconitine 20 μg/kg; number of animals with event
[4] = tested on: calcium chloride-induced arrhythmia model in rats; assay: Prophylactic antiarrhythmic activity in calcium chloride-induced arrhythmia; assay type: in vivo, rat; details: 5 mg/kg iv 15 min before calcium chloride 140 mg/kg; number of animals with event
[5] = 0.5 mg/kg iv, 0 min (before administration)
[6] = 1.0 mg/kg iv, 0 min (before administration)
[7] = 0.05 mg/kg iv 15 min before adrenaline 20 μg/kg
[8] = 0.1 mg/kg iv 15 min before adrenaline 20 μg/kg
[9] = 0.25 mg/kg iv 15 min before adrenaline 20 μg/kg
[10] = 2.5 mg/kg iv, 0 min (before administration)
[11] = 0.5 mg/kg iv 15 min before adrenaline 20 μg/kg
[12] = 1 mg/kg iv 15 min before adrenaline 20 μg/kg

## Cl.NC(=O)c1ccccc1OCCCCN1CCN(c2cccc(Cl)c2)CC1 [JJGW01, 2-{4-[4-(3-chlorophenyl)piperazin-1-ylo]butoxy}benzamide hydrochloride]
α1-adrenergic receptors
  Adrenergic Receptors—pKi α1: 8.40 ± 0.01
α2-adrenergic receptors
  Adrenergic Receptors—pKi α2: 6.13 ± 0.02
[1]; 1 mg/kg iv
  attenuation of the methoxamine pressor response: 81%
Normotensive rats; [5]
  DBP—diastolic blood pressure: 95.3 ± 12.6 mmHg
  SBP—systolic blood pressure: 130.7 ± 14.9 mmHg
Normotensive rats; 0.5 mg/kg iv, 5 min
  DBP—diastolic blood pressure: 88.5 ± 14.3 mmHg
  SBP—systolic blood pressure: 119.0 ± 13.4 mmHg
Normotensive rats; 0.5 mg/kg iv, 10 min
  DBP—diastolic blood pressure: 85.0 ± 13.6 mmHg
  SBP—systolic blood pressure: 115.7 ± 13.0 mmHg
Normotensive rats; 0.5 mg/kg iv, 20 min
  DBP—diastolic blood pressure: 84.8 ± 8.5 mmHg
  SBP—systolic blood pressure: 114.7 ± 8.8 mmHg
Normotensive rats; 0.5 mg/kg iv, 30 min
  DBP—diastolic blood pressure: 84.3 ± 6.9 mmHg
  SBP—systolic blood pressure: 114.5 ± 10.2 mmHg
Normotensive rats; 0.5 mg/kg iv, 40 min
  DBP—diastolic blood pressure: 86.0 ± 10.3 mmHg
  SBP—systolic blood pressure: 115.2 ± 12.6 mmHg
Normotensive rats; 0.5 mg/kg iv, 50 min
  DBP—diastolic blood pressure: 88.3 ± 15.3 mmHg
  SBP—systolic blood pressure: 116.8 ± 17.3 mmHg
Normotensive rats; 0.5 mg/kg iv, 60 min
  DBP—diastolic blood pressure: 86.8 ± 15.5 mmHg
  SBP—systolic blood pressure: 113.8 ± 16.1 mmHg
Normotensive rats; [6]
  DBP—diastolic blood pressure: 87.7 ± 11.2 mmHg
  SBP—systolic blood pressure: 112.5 ± 11.6 mmHg
Normotensive rats; 1 mg/kg iv, 40th min after administration
  decrease of the diastolic blood pressure: 16%
Normotensive rats; 1 mg/kg iv, 60th min after administration
  decrease of the diastolic blood pressure: 17%
Normotensive rats; 1.0 mg/kg iv, 5 min
  DBP—diastolic blood pressure: 80.2 ± 10.8 mmHg
  SBP—systolic blood pressure: 102.5 ± 9.5 ^d mmHg
Normotensive rats; 1.0 mg/kg iv, 10 min
  DBP—diastolic blood pressure: 79.0 ± 11.9 mmHg
  SBP—systolic blood pressure: 100.3 ± 10.4 ^d mmHg
Normotensive rats; 1.0 mg/kg iv, 20 min
  DBP—diastolic blood pressure: 77.5 ± 12.1 mmHg
  SBP—systolic blood pressure: 99.7 ± 11.3 ^c mmHg
Normotensive rats; 1.0 mg/kg iv, 30 min
  DBP—diastolic blood pressure: 75.7 ± 10.6 mmHg
  SBP—systolic blood pressure: 98.2 ± 10.4 ^c mmHg
Normotensive rats; 1.0 mg/kg iv, 40 min
  DBP—diastolic blood pressure: 73.8 ± 14.0 ^a mmHg
  SBP—systolic blood pressure: 95.7 ± 13.3 ^c mmHg
Normotensive rats; 1.0 mg/kg iv, 50 min
  DBP—diastolic blood pressure: 72.7 ± 11.6 mmHg
  SBP—systolic blood pressure: 95.5 ± 11.2 ^d mmHg
Normotensive rats; 1.0 mg/kg iv, 60 min
  DBP—diastolic blood pressure: 73.2 ± 11.3 ^a mmHg
  SBP—systolic blood pressure: 96.5 ± 10.6 ^c mmHg
Normotensive rats; 1 mg/kg iv, between the 5th and 60th min after the injection
  decrease of the systolic blood pressure: 9–15%
[2]; [7]
  Blocks: 6/6
  Bradycardia: 6/6
  Extrasystoles: 6/6
  Mortality: 4/6
[2]; [8]
  Blocks: 5/6
  Bradycardia: 3/6
  Extrasystoles: 5/6
  Mortality: 0/6
[2]; [9]
  Blocks: 4/6
  Bradycardia: 2/6
  Extrasystoles: 4/6
  Mortality: 1/6
[2]
  ED50: 0.10 (0.03–0.36) mg/kg
[3]
  Blocks: 6/6
  Bradycardia: 6/6
  Extrasystoles: 5/6
  Fibrillations: 6/6
  Mortality: 6/6
[4]
  Blocks: 6/6
  Bradycardia: 6/6
  Extrasystoles: 6/6
  Fibrillations: 6/6
  Mortality: 6/6

## Cl.NC(=O)c1ccccc1OCCCCCN1CCN(c2cccc(Cl)c2)CC1 [JJGW02, 2-{5-[4-(3-chlorophenyl)piperazin-1-ylo]pentoxy}benzamide hydrochloride]
α1-adrenergic receptors
  Adrenergic Receptors—pKi α1: 8.33 ± 0.02
α2-adrenergic receptors
  Adrenergic Receptors—pKi α2: 6.20 ± 0.02
[1]; 2.5 mg/kg iv
  attenuation of the methoxamine pressor response: 100%
Normotensive rats; [6]
  DBP—diastolic blood pressure: 87.7 ± 14.9 mmHg
  SBP—systolic blood pressure: 118.0 ± 10.5 mmHg
Normotensive rats; 1.0 mg/kg iv, 5 min
  DBP—diastolic blood pressure: 82.7 ± 16.0 mmHg
  SBP—systolic blood pressure: 113.7 ± 8.7 mmHg
Normotensive rats; 1.0 mg/kg iv, 10 min
  DBP—diastolic blood pressure: 83.3 ± 10.3 mmHg
  SBP—systolic blood pressure: 111.2 ± 6.4 mmHg
Normotensive rats; 1.0 mg/kg iv, 20 min
  DBP—diastolic blood pressure: 80.0 ± 14.1 mmHg
  SBP—systolic blood pressure: 109.7 ± 9.1 mmHg
Normotensive rats; 1.0 mg/kg iv, 30 min
  DBP—diastolic blood pressure: 73.7 ± 10.6 mmHg
  SBP—systolic blood pressure: 105.7 ± 7.5 mmHg
Normotensive rats; 1.0 mg/kg iv, 40 min
  DBP—diastolic blood pressure: 75.0 ± 13.2 mmHg
  SBP—systolic blood pressure: 107.7 ± 11.5 mmHg
Normotensive rats; 1.0 mg/kg iv, 50 min
  DBP—diastolic blood pressure: 73.7 ± 13.9 mmHg
  SBP—systolic blood pressure: 108.7 ± 12.9 mmHg
Normotensive rats; 1.0 mg/kg iv, 60 min
  DBP—diastolic blood pressure: 76.7 ± 19.2 mmHg
  SBP—systolic blood pressure: 111.0 ± 18.0 mmHg
Normotensive rats; [10]
  DBP—diastolic blood pressure: 84.8 ± 12.1 mmHg
  SBP—systolic blood pressure: 114.3 ± 15.7 mmHg
Normotensive rats; 2.5 mg/kg iv, 5 min
  DBP—diastolic blood pressure: 72.0 ± 9.4 ^c mmHg
  SBP—systolic blood pressure: 103.2 ± 13.0 ^c mmHg
Normotensive rats; 2.5 mg/kg iv, 10 min
  DBP—diastolic blood pressure: 72.8 ± 11.6 ^b mmHg
  SBP—systolic blood pressure: 104.2 ± 13.2 ^b mmHg
Normotensive rats; 2.5 mg/kg iv, 20 min
  DBP—diastolic blood pressure: 73.0 ± 9.6 ^b mmHg
  SBP—systolic blood pressure: 102.8 ± 13.4 ^b mmHg
Normotensive rats; 2.5 mg/kg iv, 30 min
  DBP—diastolic blood pressure: 72.3 ± 8.1 ^a mmHg
  SBP—systolic blood pressure: 103.7 ± 10.8 ^a mmHg
Normotensive rats; 2.5 mg/kg iv, 40 min
  DBP—diastolic blood pressure: 73.8 ± 9.4 ^a mmHg
  SBP—systolic blood pressure: 106.5 ± 10.6 mmHg
Normotensive rats; 2.5 mg/kg iv, 50 min
  DBP—diastolic blood pressure: 73.7 ± 8.7 mmHg
  SBP—systolic blood pressure: 103.2 ± 9.4 ^b mmHg
Normotensive rats; 2.5 mg/kg iv, 60 min
  DBP—diastolic blood pressure: 73.7 ± 7.9 ^a mmHg
  SBP—systolic blood pressure: 105.2 ± 9.7 ^a mmHg
Normotensive rats; 2.5 mg/kg iv, between the 5th and 30th min and between the 50th and 60th min
  decrease of the systolic blood pressure: 8–10%
Normotensive rats; 2.5 mg/kg iv, between the 5th to 40th min and in the 60th min
  decrease of the diastolic blood pressure: 13–15%
[2]; [9]
  Blocks: 5/6
  Bradycardia: 5/6
  Extrasystoles: 5/6
  Mortality: 3/6
[2]; [11]
  Blocks: 6/6
  Bradycardia: 5/6
  Extrasystoles: 5/6
  Mortality: 0/6
[2]; [12]
  Blocks: 5/6
  Bradycardia: 4/6
  Extrasystoles: 5/6
  Mortality: 1/6
[2]
  ED50: 0.45 (0.11–1.77) mg/kg
[3]
  Blocks: 6/6
  Bradycardia: 6/6
  Extrasystoles: 6/6
  Fibrillations: 6/6
  Mortality: 6/6
[4]
  Blocks: 5/6
  Bradycardia: 6/6
  Extrasystoles: 5/6
  Fibrillations: 4/6
  Mortality: 6/6
